In brackets after ≈: the same amount, converted by molar mass.
How the values were obtained:
[1] = test system: Escherichia coli; test: Antibacterial activity against Escherichia coli (ECOL) 6674; format: functional
[2] = test system: Streptococcus pneumoniae; test: Antibacterial activity against Streptococcus pneumoniae (SPNE) 9912; format: functional
[3] = test system: Staphylococcus epidermidis; test: Antibacterial activity against Staphylococcus epidermidis (SEPI) 12084; format: functional
[4] = test system: Staphylococcus aureus; test: Antibacterial activity against Staphylococcus aureus (SAUR) 9218; format: functional
[5] = target: T1, Peptide deformylase (Staphylococcus aureus subsp. aureus Mu50, UniProt P68825); test: Inhibition of Peptidyl deformylase (PDF)
T1 sequence (P68825 whole entry): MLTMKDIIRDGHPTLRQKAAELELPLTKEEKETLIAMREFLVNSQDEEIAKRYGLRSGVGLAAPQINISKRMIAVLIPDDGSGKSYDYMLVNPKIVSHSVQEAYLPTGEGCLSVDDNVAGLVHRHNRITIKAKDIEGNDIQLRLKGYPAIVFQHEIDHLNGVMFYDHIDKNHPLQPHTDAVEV

Row | Compound | MIC [1] [µg/mL] | MIC [2] [µg/mL] | MIC [3] [µg/mL] | MIC [4] [µg/mL] | IC50 [5] [µM]
1 | COc1cccc(C(NCc2cccc(C(F)(F)F)c2)C(=O)NO)c1 (stereo unspecified) | > 128 | > 128 | > 128 | > 128 | –
2 | O=C(Cc1ccc(-c2ccccc2)cc1)NO | > 128 | > 128 | > 128 | > 128 | > 50
3 | O=C(NO)C(NCc1cccc(C(F)(F)F)c1)c1ccc(F)c(F)c1 (stereo unspecified) | > 128 | > 128 | > 128 | > 128 | 0.69
4 | O=C(NO)N(CCc1cccc(C(F)(F)F)c1)c1cccc2ccccc12 | > 128 | 32 (≈ 85.5 µM) | 32 (≈ 85.5 µM) | 32 (≈ 85.5 µM) | –
5 | O=C(O)C(NCc1cccc(C(F)(F)F)c1)c1cccc2ccccc12 (stereo unspecified) | > 128 | 128 (≈ 356 µM) | > 128 | > 128 | > 100
6 | NC(=O)C(NCc1cccc(C(F)(F)F)c1)c1cccc2ccccc12 (stereo unspecified) | > 128 | 16 (≈ 44.6 µM) | 64 (≈ 179 µM) | 64 (≈ 179 µM) | > 100
7 | COc1cc(Cl)c(CC(=O)NO)cc1OC | > 32 | > 32 | > 32 | > 32 | –
8 | CC(=O)NO [ACETOHYDROXAMIC ACID] | > 128 | > 128 | > 128 | > 128 | > 100
9 | NNC(=O)C(NCc1cccc(C(F)(F)F)c1)c1cccc2ccccc12 (stereo unspecified) | > 128 | 32 (≈ 85.7 µM) | 128 (≈ 343 µM) | 64 (≈ 171 µM) | 4.1
10 | O=C(CS)N(CCc1cccc(C(F)(F)F)c1)c1cccc2ccccc12 | > 128 | > 128 | > 128 | > 128 | > 100
11 | O=C(NO)C(NCc1cccc(C(F)(F)F)c1)c1ccccc1F (stereo unspecified) | > 128 | > 128 | > 128 | > 128 | 0.46
12 | O=C(NO)C(NCc1cccc(C(F)(F)F)c1)c1cccc2ccccc12 (stereo unspecified) | > 64 | > 64 | > 64 | > 64 | –
13 | O=C(CO)N(CCc1cccc(C(F)(F)F)c1)c1cccc2ccccc12 | > 128 | 32 (≈ 85.7 µM) | > 128 | 32 (≈ 85.7 µM) | > 100
14 | NNC(=O)N(CCc1cccc(C(F)(F)F)c1)c1cccc2ccccc12 | > 128 | > 128 | > 128 | > 128 | > 100

From ChEMBL document CHEMBL1134074, “Identification of novel potent hydroxamic acid inhibitors of peptidyl deformylase and the importance of the hydroxamic acid functionality on inhibition” (Bioorg Med Chem Lett, 2001)
